Measured values as given in patent publication US8945832B2, “Treatment prediction involving HMGCR” (Atlas Antibodies AB, priority 2008, dated 2015).
Read-outs that look alike come from different tables or passages of the source.

What was measured:
[1] = test system: MCF-7 breast cancer cells; conditions: MCF-7 cells; cited from earlier work
[2] = test system: stage II invasive breast cancer; assay: Randomized premenopausal cohort: recurrence free survival, adjuvant tamoxifen vs no adjuvant endocrine treatment, by HMGCR protein status (IHC on TMA); assay type: in vivo, human; conditions: for outcome (RFS) of HMGCR positive and ER negative vs HMGCR negative and ER positive patients: tamoxifen treated cohort
Description: The inclusion criteria were pre-menopausal patients, or patients younger than 50 years, with stage II (pT2 N0 M0, pT1-2 N1 M0) invasive breast cancer treated by modified mastectomy or breast conserving surgery with axillary lymph node dissection. Post-operative radiotherapy (50 Gy) was administered after breastconserving surgery and all lymph node-positive patients received locoregional radiotherapy. […] The study design is described in detail elsewhere (Rydén L et al, Eur J Cancer, 2005, 41(2): 256-64). Ethical permission was obtained from the Local Ethics Committees at Lund and Linköping Universities.
Tissue blocks from 500 of the 564 patients could be retrieved for TMA-construction. All cases had been histopathologically re-evaluated on hematoxylin and eosin stained slides. TMA:s were constructed by sampling 2×0.6 mm cores per case from areas representative of invasive cancer, using an manual arraying device (MTA-1, Beecher Inc, WI, USA). […] IHC staining of ER and PR had been performed previously. In line with current clinical praxis, a cut-off at 10% positive nuclei was used to define hormone receptor positivity.
For statistical analyses, the cytoplasmic intensity (CI) level was evaluated, in line with what is described in Examples, Section 3 above. […] Two categories were defined: “HMGCR high” corresponding to CI=weak, moderate and strong and “HMGCR low” corresponding to CI=absent This classification of samples was used for RFS analysis according to the Kaplan-Meier estimator, and the log-rank test was used to compare survival in different strata. ER and PR negativity was defined as <10% positively staining nuclei, according to current clinical guidelines in Sweden. All statistical tests were two-sided, and p-values of <0.05 were considered significant. All calculations were made with the statistical package SPSS 17.0 (SPSS Inc. Illinois, USA).

primary breast tumors = assay: Gene expression analysis of breast cancer: RFS by HMGCR mRNA level in tamoxifen treated patients (GSE 9893); assay type: in vivo, human
Description: Data was collected from a previously performed microarray study, Chanrion et al, based on a patient cohort of 155 primary breast tumors obtained from patients who had undergone initial surgery between 1989 and 2001 at the Cancer Research Center of Val d'Aurelle in Montpellier, the Bergonie' Institute in Bordeaux, or the Department of Obstetrics and Gynecology of Turin.
The median follow-up time for all patients was 5.5 years. Eight tumors were ER negative, and six of these tumors were progesterone receptor (PR) positive. No patient received neoadjuvant systemic chemotherapy. […] 121 patients also received adjuvant radiotherapy. Raw gene expression data and clinical data were downloaded from Gene Expression Omnibus (http://www.ncbi.nlm.nih.gov/GEO/) (accession number GSE 9893). The log ratio of gene expression values was used without further transformation. For statistical analysis HMGCR mRNA expression levels were analysed as a continuous variable.

breast cancer [3] = conditions: 5 years tamoxifen compared to no adjuvant treatment; cited from earlier work
breast cancer [4] = conditions: cited from earlier work
breast cancer [5] = conditions: cited from earlier work; remark: listed apart in the source
breast cancer [6] = conditions: patients with ER positive tumors, irrespective of lymph node status; five years adjuvant; cited from earlier work
breast cancer [7] = conditions: cited from earlier work; remark: listed apart in the source

Compound: CC[C@H](C)C(=O)O[C@H]1CCC=C2C=C[C@H](C)[C@H](CC[C@@H]3C[C@@H](O)CC(=O)O3)[C@H]21 [mevastatin]
- induction of HMGCR activity [1]: 10- to 15 fold
- induction of HMGCR mRNA expression [1]: 2.5- to 3.5 fold

Compound: CC/C(=C(\c1ccccc1)c1ccc(OCCN(C)C)cc1)c1ccccc1 [tamoxifen]
- RFS of HMGCR high vs HMGCR low category ([2]; ER positive tamoxifen treated subjects, FIG. 2a): significantly better RFS
- effect of tamoxifen treatment on recurrence free survival ([2]; HMGCR negative and ER negative subjects, FIG. 10b): no positive effect
- effect of tamoxifen treatment on recurrence free survival ([2]; HMGCR positive and ER negative subjects, FIG. 9a): improved survival
- effect of tamoxifen treatment on recurrence free survival ([2]; HMGCR positive and ER negative, lymph node positive patients, FIG. 9b): further enhanced
- tamoxifen impact on survival (RFS) ([2]; HMGCR positive and PR negative subjects, FIG. 12, not statistically significant): trend of tamoxifen impact on survival
- effect of tamoxifen treatment on recurrence free survival ([2]; HMGCR positive or ER positive subjects, FIG. 10a): significantly positive effect
- response to tamoxifen treatment (RFS) ([2]; PR negative and HMGCR negative subjects, FIG. 11b): no response
- response to tamoxifen treatment (RFS) ([2]; PR positive and HMGCR positive subjects, FIG. 11a): significant response
- RFS associated with HMGCR expression ([2]; lymph node positive patients who received tamoxifen, FIG. 4a, p=0.001): improved RFS
- outcome (RFS) of HMGCR positive and ER negative vs HMGCR negative and ER positive patients ([2]; node positive subjects, FIG. 6a): better outcome
- RFS of HMGCR high vs HMGCR low category ([2]; patients treated with tamoxifen, FIG. 1a, p=0.001): significantly better RFS
- effect of tamoxifen treatment on recurrence free survival ([2]; patients with HMGCR high tumors, irrespective of ER status, tamoxifen vs no adjuvant endocrine treatment, FIG. 8a): significantly improved survival
- effect of tamoxifen treatment on recurrence free survival ([2]; patients with HMGCR low tumors, irrespective of ER status, FIG. 8b): no impact on survival
- effect of HMGCR level on RFS ([2]; tamoxifen treated ER negative subjects, FIG. 7a): positive effect on RFS
- outcome (RFS) of HMGCR positive and ER negative vs HMGCR negative and ER positive patients ([2]; FIG. 3a): better outcome
- RFS of high vs low HMGCR mRNA expression (primary breast tumors; ER positive subjects only, adjuvant tamoxifen, FIG. 13b): improved RFS
- RFS of high vs low HMGCR mRNA expression (primary breast tumors; all 155 patients, adjuvant tamoxifen 20 mg daily for 5 years, FIG. 13a): significantly better RFS
- reduction in breast cancer specific mortality (breast cancer [3]): 34%
- reduction in disease recurrence (breast cancer [3]): 41%
- recurrence-free and overall survival in tamoxifen treated patients (breast cancer [4]; high expression (>75% nuclear fraction) of PR, irrespectively of ERα status): increased recurrence-free and overall survival
- effect from tamoxifen treatment (breast cancer [4]; lower PR level, <75%): no positive effect
- disease free survival, tamoxifen vs no adjuvant treatment (breast cancer [5]; older patients (≧60 years) with ERα+/PR+ tumors): significantly longer disease free survival
- disease free survival, tamoxifen vs no adjuvant treatment (breast cancer [5]; younger patients (<60 years)): no significant effect
- breast cancer mortality (breast cancer [6]): reduces the breast cancer mortality
- ERα positive patients who do not respond to tamoxifen treatment (breast cancer [7]): 30-40%
